# Test results: US9426996B2, “Use of benzoxaboroles as volatile antimicrobial agents on meats, plants, or plant parts” (AgroFresh Inc., priority 2013, dated 2016)
# Tests used:
# Botrytis cinerea [1] = assay: combination treatment with 1-MCP on white roses; type: in vivo; conditions: 1-MCP 500 ppb v/v for 24 hours, no Compound A
# Procedure: To evaluate a combination treatment of Compound A with 1-methylcyclopropene (1-MCP), an in vivo experiment is performed on white roses.
# Five white roses are placed in an 800 mL jar containing 200 mL of a common commercial flower preservative. Three jars are then placed in a 117 L Rubbermaid storage box (Cat #2244). Two small fans are placed in opposite ends of the container to assist with the distribution of the two volatiles. A 500 parts per billion (ppb) volume per volume (v/v) 1-MCP treatment is applied (AgroFresh, Springhouse, Pa.) for 24 hours at 21° C. After the 1-MCP treatment is completed, the containers are vented, and Compound A powder is applied in a dose dependent manner to achieve a final headspace concentration of 0.2, 0.04, or 0.008 mg/L with a sublimation device (copper tube heated to 200° C. with fan flow at 0.5 L/min), with the end of the tube penetrating through a ½ inch side port in the container that is sealed immediately after the application. The flowers are incubated for three days at 21° C. After treatment, the flowers are evaluated for an additional seven days at 21° C. for disease incidence and severity of the flower petals.
# Alternaria alternata [2] = assay: combination treatment with 1-MCP on broccoli; type: in vivo; design: scale not given here; conditions: 1-MCP alone, 21° C.
# Procedure: To evaluate a combination treatment of Compound A with 1-methylcyclopropene (1-MCP), an in vivo experiment is performed on broccoli.
# Broccoli flowers are inoculated with 1×10^6 spores/mL of Alternaria alternata and then placed in a 117 L Rubbermaid storage box (Cat #2244) with two small fans placed in opposite ends of the container. A 500 ppb v/v 1-MCP treatment is applied (AgroFresh, Springhouse, Pa.) for 24 hours at 1° C. After completion of the 1-MCP treatment, broccoli florets are removed and placed in a 10.8-cup SnapWare airtight container (Model #109842). Compound A powder is applied in a dose dependent manner to achieve a final headspace concentration of 2 or 0.4 mg/L with a sublimation device (copper tube heated to 200° C. with fan flow at 0.5 L/min), with the end of the tube penetrating through a ½ inch side port in the container that is sealed immediately after the application. The florets are incubated for five days at 10° C. or three days at 21° C., then evaluated for an additional five days at 21° C. for disease incidence and severity.
# Alternaria alternata [3] = assay: combination treatment with 1-MCP on tomato; type: in vivo; conditions: tomatoes; 1-MCP 1000 ppb v/v alone
# Procedure: Each tomato fruit is wounded three times and inoculated with 1×10^6 spores/mL of Alternaria alternata and then placed in a 117 L Rubbermaid storage box (Cat #2244) with two small fans placed in opposite ends of the container. A 1000 ppb v/v 1-MCP treatment is applied (AgroFresh, Springhouse, Pa.) for 24 hours at 21° C. After completion of the 1-MCP treatment, the tomatoes are removed and placed in a 10.8-cup […] airtight container (Model #109842). […] The tomatoes are incubated for three days at 21° C., then evaluated for an additional three days at 21° C. for disease incidence and severity. Results listed in Table 29 show good activity against Alternaria alternata infection of tomato.
# Alternaria alternata [4] = assay: combination treatment with 1-MCP on broccoli; type: in vivo; design: scale not given here; conditions: 1-MCP alone, 11 C.
# Botrytis cinerea [5] = assay: in vitro inhibition assay for volatile antimicrobial compounds (12-well PDA plates); type: cell-based; conditions: in vitro; volatile; 14 days at 4° C.
# Procedure: 12-Well (7 milliliter (mL volume per well) microtiter plates are used for the in vitro inhibition assay for volatile antimicrobial compounds. A 3-mL volume of full-strength Potato Dextrose Agar (PDA) is added to each well. After cooling, 1 microliter (μL) of 1×10^6 per mL Botrytis cinerea spore suspension is spot pipetted to the center of the agar. For the first experiment, inoculated plates are allowed to germinate for 5 days at 4° C. For the second experiment, plates are inoculated immediately prior to volatile fungicide treatment. Small Whatman #1 filter disks (Cat. No. 1001-0155) are placed, in duplicate, on the underside of a polyethylene PCR plate sealing film.
# The acetone is permitted to evaporate for 5 minutes. The headspace around the Botrytis cinerea inoculum is then sealed inside the well by the film with the adhering disk containing the fungicide. Plates are inverted, placed over the treated disks and sealed to prevent any of the chemical from flaking from the disk and falling onto the inoculated agar. After 14 days of storage at 4° C., cultures are evaluated for percent growth relative to control. Regardless of whether the spores had germinated for 5 days, or if the treatment commenced soon after inoculation of the plates (˜15 minutes); there is 100% control of the fungal pathogen down to 0.005 mg.
# A total of 14 antimicrobial compounds are tested using the in vitro inhibition assay described in Example 1. All 14 compounds are applied to the Whatman disks, in duplicate, in a dose dependent manner (0.31 to 0.0006 mg/disk). […] Other compounds, such as Compound C, Compound D, and Compound E conferred 100% control down to 0.023, 0.04, and 0.08 mg/disk, respectively. Results of nine compounds are summarized in Table 2, where the other five compounds show no detected activity in the ranges tested. […]
# Botrytis cinerea [6] = assay: in vivo volatile bioassay using strawberry
# Procedure: In order to assess the in vivo activity of volatile antimicrobial compounds, a volatile bioassay is developed using strawberry. Two fruit are placed inside a 240 mL jar, with the calyx facing downwards. […] The acetone is permitted to evaporate for 5 minutes. The jars are then capped with the lids containing the fungicide, and placed for 5 days at 21° C. After storage, fruit are evaluated for incidence and severity of disease and appearance of phytotoxicity.
# Penicillium digitatum [7] = assay: in vivo volatile bioassay using orange (Compound B, sublimation); conditions: for Sporulation (mm) / Water soaked lesions (mm): oranges
# Procedure: Two oranges per replicate are placed inside a clamshell. Three fresh wounds per orange are inoculated with 30 μL of 1×10^6 per mL Penicillium digitatum spore suspension. The clamshells are placed inside a 10.8-cup SnapWare airtight container (Model #109842). […] After storage, fruits are evaluated for disease incidence (mm diameter of the rot) and pathogen sporulation (mm diameter) on the surface of the fruits for an additional three days at 21° C., with results summarized in Table 20.
# Botrytis cinerea [8] = assay: in vivo sublimation bioassay on fruit, 1 mg/L (Example 31); conditions: for Incidence (%) / Severity (0-4): 1 mg/L sublimed, three day treatment plus three days at 21° C.
# Procedure: (§1) To assess the in vivo activity of volatile antimicrobial Compounds A and B (FIG. 1) in fruit, a volatile bioassay is developed using apple, pear, orange, strawberry, grape and blueberry.
# (§2) Two apples, 2 oranges, 2 pears, 8 strawberries, 16 grapes or 30 blueberries (per replicate, in duplicate) are placed in a clamshell with the stem end facing up for all fruits except for strawberry (stem end facing downwards). A fresh wound is inoculated with 20 μL 1×10^6 per mL Penicillium expansum spore suspension (apple and pear), 20 μL 1×10^6 per mL Penicillium digitatum spore suspension (orange), and 20 μL (strawberry and grape) or 10 μL (blueberry) of 1×10^6 per mL Botrytis cinerea spore suspension. The clamshells are placed inside a 117 L Rubbermaid storage box (Cat #2244) with lids closed. […] After treatment, fruits are held for an additional three days at 21° C., then evaluated for disease incidence (mm diameter of browning or water-soaked lesions) and pathogen sporulation (mm diameter) for apple, pear and orange, as well as Botrytis cinerea disease incidence (%) and severity (0 to 4) for strawberry, grape and blueberry, with results summarized in Table 30.
# Penicillium digitatum [9] = assay: as above
# Procedure: as §1, §2
# Penicillium expansum = assay: as above; conditions: 1 mg/L sublimed, three day treatment plus three days at 21° C.
# Procedure: as §1, §2
# [10] = Orange, 1 mg/L sublimed, three day treatment plus three days at 21° C.
smiles,measurement,setting,value
"CC1=CC1 [Compound 1-MCP, 1-methylcyclopropene, reference compound]",Incidence (%),Botrytis cinerea [1],33.3%
same,Severity (0-4),Botrytis cinerea [1],0.4
same,Color Score,Alternaria alternata [2],1.79
same,Severity,Alternaria alternata [2],0.61
same,Diameter of the rot (mm),Alternaria alternata [3],13.6 mm
same,Color Score,Alternaria alternata [4],1.50
same,Severity,Alternaria alternata [4],0.18
"OB1OCc2ccccc21 [Compound B, 2-(hydroxymethyl)phenylboronic acid cyclic monoester]",lowest rate with 100% control of Botrytis cinerea,Botrytis cinerea [5],0.0078 mg/disk
same,Percent (%) Incidence of Botrytis cinerea on Strawberry (in vivo),"Botrytis cinerea [6]; 0.005 mg/disk, 5 days at 21° C.",100%
same,Percent (%) Incidence of Botrytis cinerea on Strawberry (in vivo),"Botrytis cinerea [6]; 0.01 mg/disk, 5 days at 21° C.",100%
same,Percent (%) Incidence of Botrytis cinerea on Strawberry (in vivo),"Botrytis cinerea [6]; 0.02 mg/disk, 5 days at 21° C.",100%
same,Percent (%) Incidence of Botrytis cinerea on Strawberry (in vivo),"Botrytis cinerea [6]; 0.04 mg/disk, 5 days at 21° C.",75%
same,Percent (%) Incidence of Botrytis cinerea on Strawberry (in vivo),"Botrytis cinerea [6]; 0.08 mg/disk, 5 days at 21° C.",50%
same,Percent (%) Incidence of Botrytis cinerea on Strawberry (in vivo),"Botrytis cinerea [6]; 0.16 mg/disk, 5 days at 21° C.",25%
same,Percent (%) Incidence of Botrytis cinerea on Strawberry (in vivo),"Botrytis cinerea [6]; 0.32 mg/disk, 5 days at 21° C.",0%
same,Percent (%) Incidence of Botrytis cinerea on Strawberry (in vivo),"Botrytis cinerea [6]; 0.64 mg/disk, 5 days at 21° C.",0%
same,Percent (%) Incidence of Botrytis cinerea on Strawberry (in vivo),"Botrytis cinerea [6]; 1.25 mg/disk, 5 days at 21° C.",0%
same,Percent (%) Incidence of Botrytis cinerea on Strawberry (in vivo),"Botrytis cinerea [6]; 2.5 mg/disk, 5 days at 21° C.",0%
same,lowest rate with 100% control of Botrytis cinerea,"Botrytis cinerea [6]; strawberry, 5 days at 21° C.",0.32 mg/disk
same,appearance of phytotoxicity,"Botrytis cinerea [6]; strawberry, any of the rates evaluated (2.5 to 0.005 mg/disk)",no evidence of phytotoxicity
same,in vivo volatile inhibition of P. digitatum in orange,Penicillium digitatum [7]; 10 mg/L,complete inhibition
same,Sporulation (mm),"Penicillium digitatum [7]; 0.4 mg/L, Day 0",0.7 mm
same,Water soaked lesions (mm),"Penicillium digitatum [7]; 0.4 mg/L, Day 0",5.7 mm
same,Sporulation (mm),"Penicillium digitatum [7]; 0.4 mg/L, Day 1",1.4 mm
same,Water soaked lesions (mm),"Penicillium digitatum [7]; 0.4 mg/L, Day 1",29.4 mm
same,Sporulation (mm),"Penicillium digitatum [7]; 0.4 mg/L, Day 2",8.1 mm
same,Water soaked lesions (mm),"Penicillium digitatum [7]; 0.4 mg/L, Day 2",49.3 mm
same,Sporulation (mm),"Penicillium digitatum [7]; 0.4 mg/L, Day 3",27.2 mm
same,Water soaked lesions (mm),"Penicillium digitatum [7]; 0.4 mg/L, Day 3",63.4 mm
same,Sporulation (mm),"Penicillium digitatum [7]; 2 mg/L, Day 0",0 mm
same,Water soaked lesions (mm),"Penicillium digitatum [7]; 2 mg/L, Day 0",0.5 mm
same,Sporulation (mm),"Penicillium digitatum [7]; 2 mg/L, Day 1",0.3 mm
same,Water soaked lesions (mm),"Penicillium digitatum [7]; 2 mg/L, Day 1",7.8 mm
same,Sporulation (mm),"Penicillium digitatum [7]; 2 mg/L, Day 2",2.8 mm
same,Water soaked lesions (mm),"Penicillium digitatum [7]; 2 mg/L, Day 2",30.7 mm
same,Sporulation (mm),"Penicillium digitatum [7]; 2 mg/L, Day 3",5.7 mm
same,Water soaked lesions (mm),"Penicillium digitatum [7]; 2 mg/L, Day 3",42.6 mm
same,Sporulation (mm),"Penicillium digitatum [7]; 10 mg/L, Day 0",0 mm
same,Water soaked lesions (mm),"Penicillium digitatum [7]; 10 mg/L, Day 0",0 mm
same,Sporulation (mm),"Penicillium digitatum [7]; 10 mg/L, Day 1",0 mm
same,Water soaked lesions (mm),"Penicillium digitatum [7]; 10 mg/L, Day 1",0 mm
same,Sporulation (mm),"Penicillium digitatum [7]; 10 mg/L, Day 2",0 mm
same,Water soaked lesions (mm),"Penicillium digitatum [7]; 10 mg/L, Day 2",0 mm
same,Sporulation (mm),"Penicillium digitatum [7]; 10 mg/L, Day 3",0 mm
same,Water soaked lesions (mm),"Penicillium digitatum [7]; 10 mg/L, Day 3",0.8 mm
same,Sporulation (mm),"Penicillium digitatum [7]; 50 mg/L, Day 0",0 mm
same,Water soaked lesions (mm),"Penicillium digitatum [7]; 50 mg/L, Day 0",0 mm
same,Sporulation (mm),"Penicillium digitatum [7]; 50 mg/L, Day 1",0 mm
same,Water soaked lesions (mm),"Penicillium digitatum [7]; 50 mg/L, Day 1",0 mm
same,Sporulation (mm),"Penicillium digitatum [7]; 50 mg/L, Day 2",0 mm
same,Water soaked lesions (mm),"Penicillium digitatum [7]; 50 mg/L, Day 2",0 mm
same,Sporulation (mm),"Penicillium digitatum [7]; 50 mg/L, Day 3",0 mm
same,Water soaked lesions (mm),"Penicillium digitatum [7]; 50 mg/L, Day 3",0 mm
same,in vivo antimicrobial control of B. cinerea,"Botrytis cinerea [8]; 1 mg/L, volatile fungicide on different hosts",100%
same,Incidence (%),Botrytis cinerea [8]; Blueberry,0.0%
same,Severity (0-4),Botrytis cinerea [8]; Blueberry,0.0
same,Incidence (%),Botrytis cinerea [8]; Grape,0.0%
same,Severity (0-4),Botrytis cinerea [8]; Grape,0.0
same,Incidence (%),Botrytis cinerea [8]; Strawberry,0.0%
same,Severity (0-4),Botrytis cinerea [8]; Strawberry,0.0
same,in vivo antimicrobial control of P. digitatum,"Penicillium digitatum [9]; 1 mg/L, volatile fungicide",100%
same,Sporulation (mm),Penicillium digitatum [9]; [10],0.0 mm
same,Water soaked lesion,Penicillium digitatum [9]; [10],0.0 mm
same,Browning (mm),Penicillium expansum; Apple,2.3 mm
same,Sporulation (mm),Penicillium expansum; Apple,0.2 mm
same,Browning (mm),Penicillium expansum; Pear,1.1 mm
same,Sporulation (mm),Penicillium expansum; Pear,0.0 mm
